Assay results taken from US10537545B2, “Ceramide derivatives as anticancer agents” (Rutgers, The State University of New Jersey, priority 2015, dated 2020).

Tests used:
MCF7 [1] = test: Cytotoxicity assay, MCF7 cancer cell line; assay type: cell-based, human; conditions: for CTRL MCF7 (growth relative to control): control = 1; for Growth MCF7: control growth 0.7
Procedure: (§1) Cytotoxicity Assay. […] Cells were treated with varying concentrations of compounds. The IC50 were measured. […] In order to verify that assumption an LDH (Lactate Dehydrogenase) assay was performed.

MCF7 [2] = conditions: reported in Andrianasolo et al., J. Nat. Prod. 2011, read-out: IC50, growth inhibition of MCF7 (breast cancer); cited from earlier work
HELA [3] = test: Cytotoxicity assay, HELA cancer cell line; assay type: cell-based; conditions: for CTRL HELA (growth relative to control): control = 1; for Growth HELA: control growth 0.55
Procedure: as §1

HELA [4] = conditions: reported in Andrianasolo et al., J. Nat. Prod. 2011, read-out: IC50, growth inhibition of HeLa (cervical cancer); cited from earlier work
HDAC4 = HDAC4 (Homo sapiens, UniProt P56524); test: HDAC inhibitor assay, HDAC4; assay type: biochemical; conditions: up to 50 or 100 μM
From the text: (§2) Compound VIII was subjected to enzymatic inhibition test against the class I (HDAC1, HDAC2, HDAC3 and HDAC8), the class II A (HDAC4, HDAC5, HDAC7 and HDAC9) and the class II B (HDAC6) enzymes. HDAC inhibitors Trichostatin A (TSA) and TMP269 (TMP) were used as reference compounds.

HDAC7 = molecular target: T1, HDAC7 (Homo sapiens, UniProt Q8WUI4); test: HDAC inhibitor assay, HDAC7; assay type: biochemical; conditions: up to 50 or 100 μM
T1 sequence (Q8WUI4 1-952): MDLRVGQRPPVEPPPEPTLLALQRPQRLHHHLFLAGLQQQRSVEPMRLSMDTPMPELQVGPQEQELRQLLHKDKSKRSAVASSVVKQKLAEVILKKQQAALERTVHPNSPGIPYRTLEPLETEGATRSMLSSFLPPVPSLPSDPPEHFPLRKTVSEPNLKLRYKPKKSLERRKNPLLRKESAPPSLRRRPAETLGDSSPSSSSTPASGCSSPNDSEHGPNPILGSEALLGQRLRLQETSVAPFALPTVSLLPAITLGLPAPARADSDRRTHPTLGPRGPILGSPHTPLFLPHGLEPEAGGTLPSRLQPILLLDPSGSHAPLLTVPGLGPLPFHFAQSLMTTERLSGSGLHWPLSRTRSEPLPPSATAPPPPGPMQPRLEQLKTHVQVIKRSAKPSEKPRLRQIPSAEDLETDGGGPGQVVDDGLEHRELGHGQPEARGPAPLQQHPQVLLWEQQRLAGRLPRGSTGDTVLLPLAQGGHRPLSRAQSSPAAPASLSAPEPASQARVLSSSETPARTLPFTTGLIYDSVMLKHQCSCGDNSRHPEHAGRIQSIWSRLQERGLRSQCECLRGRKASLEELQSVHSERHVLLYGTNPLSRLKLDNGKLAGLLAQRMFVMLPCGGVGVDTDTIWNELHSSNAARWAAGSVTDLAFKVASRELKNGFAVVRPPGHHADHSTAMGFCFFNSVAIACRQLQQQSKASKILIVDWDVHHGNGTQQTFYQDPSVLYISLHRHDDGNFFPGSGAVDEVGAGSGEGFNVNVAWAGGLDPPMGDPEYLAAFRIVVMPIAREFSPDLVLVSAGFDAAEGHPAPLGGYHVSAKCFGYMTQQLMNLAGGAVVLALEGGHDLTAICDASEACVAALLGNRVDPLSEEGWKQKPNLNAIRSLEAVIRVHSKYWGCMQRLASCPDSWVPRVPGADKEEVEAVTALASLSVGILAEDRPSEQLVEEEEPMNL
From the text: as §2

HDAC3 = HDAC3 (Homo sapiens, UniProt O15379); test: HDAC inhibitor assay, HDAC3; assay type: biochemical; conditions: up to 50 or 100 μM
From the text: as §2

HDAC1 = HDAC1 (Homo sapiens, UniProt Q13547); test: HDAC inhibitor assay, HDAC1; assay type: biochemical; conditions: up to 50 or 100 μM
From the text: as §2

HDAC9 = HDAC9 (Homo sapiens, UniProt Q9UKV0); test: HDAC inhibitor assay, HDAC9; assay type: biochemical; conditions: up to 50 or 100 μM
From the text: as §2

HDAC6 = molecular target: T2, HDAC6 (Homo sapiens, UniProt Q9UBN7); test: HDAC inhibitor assay, HDAC6; assay type: biochemical; conditions: class II B HDAC6; read-out: IC50, inhibition of HDAC6
T2 sequence (Q9UBN7 1-1215): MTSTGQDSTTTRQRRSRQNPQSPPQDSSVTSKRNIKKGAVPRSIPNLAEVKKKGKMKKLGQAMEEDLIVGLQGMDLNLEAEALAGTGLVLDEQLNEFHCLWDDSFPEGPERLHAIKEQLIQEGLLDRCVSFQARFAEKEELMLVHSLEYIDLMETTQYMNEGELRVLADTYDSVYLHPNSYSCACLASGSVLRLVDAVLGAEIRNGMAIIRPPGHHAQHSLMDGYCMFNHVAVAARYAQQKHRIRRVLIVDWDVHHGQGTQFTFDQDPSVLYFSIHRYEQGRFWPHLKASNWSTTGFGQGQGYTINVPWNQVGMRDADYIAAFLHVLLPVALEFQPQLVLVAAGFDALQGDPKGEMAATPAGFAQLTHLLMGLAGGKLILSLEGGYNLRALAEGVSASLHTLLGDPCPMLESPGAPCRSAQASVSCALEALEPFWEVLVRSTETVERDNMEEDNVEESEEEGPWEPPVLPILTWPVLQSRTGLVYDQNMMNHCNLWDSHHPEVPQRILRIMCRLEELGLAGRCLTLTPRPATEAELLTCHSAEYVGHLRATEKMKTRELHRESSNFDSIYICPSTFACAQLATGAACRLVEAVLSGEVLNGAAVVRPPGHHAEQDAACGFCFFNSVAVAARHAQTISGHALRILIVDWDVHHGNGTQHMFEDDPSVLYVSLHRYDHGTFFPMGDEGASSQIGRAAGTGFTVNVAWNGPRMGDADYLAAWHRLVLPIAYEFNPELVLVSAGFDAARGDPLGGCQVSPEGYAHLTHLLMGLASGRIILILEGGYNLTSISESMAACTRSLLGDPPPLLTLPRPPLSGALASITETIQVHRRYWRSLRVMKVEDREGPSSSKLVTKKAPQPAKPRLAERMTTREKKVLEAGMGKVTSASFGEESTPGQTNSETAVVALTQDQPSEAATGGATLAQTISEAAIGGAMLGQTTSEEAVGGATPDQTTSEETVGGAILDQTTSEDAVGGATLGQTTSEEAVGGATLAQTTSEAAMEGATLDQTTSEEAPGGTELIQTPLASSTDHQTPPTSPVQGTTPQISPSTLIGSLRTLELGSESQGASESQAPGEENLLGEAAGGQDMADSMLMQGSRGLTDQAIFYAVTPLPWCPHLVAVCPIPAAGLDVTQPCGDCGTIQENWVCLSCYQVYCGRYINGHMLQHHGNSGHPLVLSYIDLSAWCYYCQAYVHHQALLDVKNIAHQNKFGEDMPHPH
From the text: as §2

HDAC8 = molecular target: T3, HDAC8 (Homo sapiens, UniProt Q9BY41); test: HDAC inhibitor assay, HDAC8; assay type: biochemical; conditions: up to 50 or 100 μM
T3 sequence (Q9BY41 1-377): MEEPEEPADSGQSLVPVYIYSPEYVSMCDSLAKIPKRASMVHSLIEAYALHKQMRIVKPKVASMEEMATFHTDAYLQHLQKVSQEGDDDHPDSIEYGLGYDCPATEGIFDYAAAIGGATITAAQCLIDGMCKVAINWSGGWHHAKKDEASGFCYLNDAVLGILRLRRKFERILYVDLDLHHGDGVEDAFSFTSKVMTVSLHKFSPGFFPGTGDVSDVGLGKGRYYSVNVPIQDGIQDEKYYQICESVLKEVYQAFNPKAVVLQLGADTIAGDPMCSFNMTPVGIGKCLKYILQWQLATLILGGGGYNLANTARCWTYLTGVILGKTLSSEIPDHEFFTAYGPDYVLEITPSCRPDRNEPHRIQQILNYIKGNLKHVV
From the text: as §2

HDAC5 = HDAC5 (Homo sapiens, UniProt Q9UQL6); test: HDAC inhibitor assay, HDAC5; assay type: biochemical; conditions: up to 50 or 100 μM
From the text: as §2

HDAC2 = HDAC2 (Homo sapiens, UniProt Q92769); test: HDAC inhibitor assay, HDAC2; assay type: biochemical; conditions: up to 50 or 100 μM
From the text: as §2

Sequence of HDAC3 (O15379 whole entry, species assumed): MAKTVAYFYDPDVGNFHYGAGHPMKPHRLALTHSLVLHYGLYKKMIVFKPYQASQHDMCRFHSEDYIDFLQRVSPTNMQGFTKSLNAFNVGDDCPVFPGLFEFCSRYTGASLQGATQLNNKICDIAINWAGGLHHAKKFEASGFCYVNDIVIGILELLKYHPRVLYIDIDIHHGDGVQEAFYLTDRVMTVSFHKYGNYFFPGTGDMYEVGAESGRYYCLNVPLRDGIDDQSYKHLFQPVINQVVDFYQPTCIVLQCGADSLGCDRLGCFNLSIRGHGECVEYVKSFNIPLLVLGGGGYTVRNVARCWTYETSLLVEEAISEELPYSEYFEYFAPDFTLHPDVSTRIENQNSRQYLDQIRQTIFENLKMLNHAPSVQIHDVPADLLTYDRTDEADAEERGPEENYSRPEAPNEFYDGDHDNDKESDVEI
Sequence of HDAC3 (Q9Y618 395-489 partner limits assumed, species assumed): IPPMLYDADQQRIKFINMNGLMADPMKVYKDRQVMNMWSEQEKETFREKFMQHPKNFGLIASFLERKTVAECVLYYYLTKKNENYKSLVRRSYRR
Sequence of HDAC4 (P56524 whole entry, species assumed): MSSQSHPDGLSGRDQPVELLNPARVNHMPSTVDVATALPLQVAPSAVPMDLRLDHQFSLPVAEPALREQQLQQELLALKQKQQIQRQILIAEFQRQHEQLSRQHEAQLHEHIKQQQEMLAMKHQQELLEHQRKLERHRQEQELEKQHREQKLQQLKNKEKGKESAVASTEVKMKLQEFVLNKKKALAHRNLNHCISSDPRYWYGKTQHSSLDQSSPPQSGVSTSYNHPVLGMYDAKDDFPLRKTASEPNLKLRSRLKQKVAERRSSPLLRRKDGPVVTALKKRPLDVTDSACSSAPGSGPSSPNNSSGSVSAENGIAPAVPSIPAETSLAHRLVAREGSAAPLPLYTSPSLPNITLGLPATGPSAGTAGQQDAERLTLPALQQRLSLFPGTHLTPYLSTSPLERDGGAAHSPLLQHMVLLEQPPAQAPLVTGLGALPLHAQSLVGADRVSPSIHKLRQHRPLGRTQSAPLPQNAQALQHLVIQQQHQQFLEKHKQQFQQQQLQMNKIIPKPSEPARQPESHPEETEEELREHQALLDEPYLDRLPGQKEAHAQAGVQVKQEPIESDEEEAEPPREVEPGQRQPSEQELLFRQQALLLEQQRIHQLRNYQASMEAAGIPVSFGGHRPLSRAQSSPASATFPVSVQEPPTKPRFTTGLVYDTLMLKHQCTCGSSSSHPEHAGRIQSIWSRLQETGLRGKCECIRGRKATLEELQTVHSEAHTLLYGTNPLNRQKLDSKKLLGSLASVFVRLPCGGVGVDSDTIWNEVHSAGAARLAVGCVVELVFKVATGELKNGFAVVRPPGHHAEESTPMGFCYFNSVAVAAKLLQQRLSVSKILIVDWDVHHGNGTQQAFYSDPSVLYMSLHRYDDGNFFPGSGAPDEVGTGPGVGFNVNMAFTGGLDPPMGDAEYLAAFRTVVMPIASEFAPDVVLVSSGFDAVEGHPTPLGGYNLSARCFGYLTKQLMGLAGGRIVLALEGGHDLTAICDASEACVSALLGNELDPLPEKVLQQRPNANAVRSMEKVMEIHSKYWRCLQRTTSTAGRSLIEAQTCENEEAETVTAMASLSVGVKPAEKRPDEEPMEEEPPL
Sequence of HDAC5 (Q9UQL6 whole entry, species assumed): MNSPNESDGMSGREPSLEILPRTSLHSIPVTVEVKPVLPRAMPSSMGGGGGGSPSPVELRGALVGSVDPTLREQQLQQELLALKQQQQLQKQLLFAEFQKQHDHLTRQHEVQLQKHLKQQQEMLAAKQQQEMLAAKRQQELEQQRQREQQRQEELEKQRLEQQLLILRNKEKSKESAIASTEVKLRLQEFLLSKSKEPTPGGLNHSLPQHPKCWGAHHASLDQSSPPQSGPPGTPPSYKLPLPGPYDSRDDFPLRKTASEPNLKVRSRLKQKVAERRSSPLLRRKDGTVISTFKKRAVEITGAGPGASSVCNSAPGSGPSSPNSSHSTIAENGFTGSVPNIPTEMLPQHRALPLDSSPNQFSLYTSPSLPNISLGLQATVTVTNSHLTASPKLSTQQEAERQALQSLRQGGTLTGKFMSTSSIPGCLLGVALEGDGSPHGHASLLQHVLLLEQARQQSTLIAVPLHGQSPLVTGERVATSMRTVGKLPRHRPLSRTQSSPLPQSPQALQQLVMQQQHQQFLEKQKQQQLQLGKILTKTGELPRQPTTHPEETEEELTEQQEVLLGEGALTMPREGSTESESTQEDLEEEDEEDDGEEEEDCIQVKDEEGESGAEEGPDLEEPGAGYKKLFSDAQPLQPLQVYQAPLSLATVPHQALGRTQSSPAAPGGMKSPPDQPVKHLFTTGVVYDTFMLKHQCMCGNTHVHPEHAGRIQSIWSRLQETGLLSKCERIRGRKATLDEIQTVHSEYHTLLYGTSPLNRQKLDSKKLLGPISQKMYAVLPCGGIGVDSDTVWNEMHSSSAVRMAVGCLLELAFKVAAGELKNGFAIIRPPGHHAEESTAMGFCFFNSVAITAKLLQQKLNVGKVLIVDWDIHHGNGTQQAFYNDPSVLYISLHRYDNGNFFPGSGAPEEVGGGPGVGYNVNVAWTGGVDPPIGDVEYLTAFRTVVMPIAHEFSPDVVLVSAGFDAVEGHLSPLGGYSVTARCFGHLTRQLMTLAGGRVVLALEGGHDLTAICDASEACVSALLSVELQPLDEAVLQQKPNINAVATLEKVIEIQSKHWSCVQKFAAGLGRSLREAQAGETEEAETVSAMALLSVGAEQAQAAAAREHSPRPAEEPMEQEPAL
Sequence of HDAC9 (Q9UKV0 whole entry, species assumed): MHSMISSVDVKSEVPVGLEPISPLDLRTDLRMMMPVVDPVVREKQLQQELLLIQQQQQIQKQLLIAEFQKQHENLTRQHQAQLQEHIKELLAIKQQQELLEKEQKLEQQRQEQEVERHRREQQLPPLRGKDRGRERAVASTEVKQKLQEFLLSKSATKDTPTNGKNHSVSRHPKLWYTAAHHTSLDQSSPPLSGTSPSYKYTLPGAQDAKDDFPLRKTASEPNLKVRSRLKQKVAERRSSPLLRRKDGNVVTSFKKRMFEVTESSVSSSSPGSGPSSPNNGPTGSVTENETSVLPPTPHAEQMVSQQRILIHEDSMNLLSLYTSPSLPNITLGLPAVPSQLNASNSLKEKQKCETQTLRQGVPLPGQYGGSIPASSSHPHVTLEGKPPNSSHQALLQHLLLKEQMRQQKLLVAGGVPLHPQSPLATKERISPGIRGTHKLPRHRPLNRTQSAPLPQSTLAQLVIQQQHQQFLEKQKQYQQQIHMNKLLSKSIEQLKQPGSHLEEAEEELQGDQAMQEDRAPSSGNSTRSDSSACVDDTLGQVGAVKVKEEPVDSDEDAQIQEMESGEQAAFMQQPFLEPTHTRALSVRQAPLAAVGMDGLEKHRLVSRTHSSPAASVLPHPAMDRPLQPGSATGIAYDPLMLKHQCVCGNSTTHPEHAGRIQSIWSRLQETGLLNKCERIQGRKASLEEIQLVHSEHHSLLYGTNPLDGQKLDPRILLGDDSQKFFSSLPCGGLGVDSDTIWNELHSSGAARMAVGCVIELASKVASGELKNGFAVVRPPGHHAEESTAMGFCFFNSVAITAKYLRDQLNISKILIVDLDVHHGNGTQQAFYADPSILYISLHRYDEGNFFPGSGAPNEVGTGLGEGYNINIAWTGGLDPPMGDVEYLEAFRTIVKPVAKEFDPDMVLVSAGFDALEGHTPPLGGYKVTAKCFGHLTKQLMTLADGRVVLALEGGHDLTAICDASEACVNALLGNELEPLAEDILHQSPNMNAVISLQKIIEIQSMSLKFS
Sequence of HDAC1 (Q13547 whole entry, species assumed): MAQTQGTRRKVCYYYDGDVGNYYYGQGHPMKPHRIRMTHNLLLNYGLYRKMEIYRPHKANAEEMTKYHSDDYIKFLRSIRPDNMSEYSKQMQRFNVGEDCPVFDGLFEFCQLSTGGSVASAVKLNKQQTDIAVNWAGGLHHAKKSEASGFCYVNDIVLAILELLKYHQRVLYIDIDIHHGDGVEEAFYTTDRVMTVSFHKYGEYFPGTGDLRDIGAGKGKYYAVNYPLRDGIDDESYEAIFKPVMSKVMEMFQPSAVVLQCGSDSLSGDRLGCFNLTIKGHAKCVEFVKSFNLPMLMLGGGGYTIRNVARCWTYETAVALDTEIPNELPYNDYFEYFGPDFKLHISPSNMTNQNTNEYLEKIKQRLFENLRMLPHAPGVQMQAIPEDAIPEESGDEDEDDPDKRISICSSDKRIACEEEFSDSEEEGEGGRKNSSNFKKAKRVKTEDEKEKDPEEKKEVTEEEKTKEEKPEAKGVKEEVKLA
Sequence of HDAC2 (Q92769 whole entry, species assumed): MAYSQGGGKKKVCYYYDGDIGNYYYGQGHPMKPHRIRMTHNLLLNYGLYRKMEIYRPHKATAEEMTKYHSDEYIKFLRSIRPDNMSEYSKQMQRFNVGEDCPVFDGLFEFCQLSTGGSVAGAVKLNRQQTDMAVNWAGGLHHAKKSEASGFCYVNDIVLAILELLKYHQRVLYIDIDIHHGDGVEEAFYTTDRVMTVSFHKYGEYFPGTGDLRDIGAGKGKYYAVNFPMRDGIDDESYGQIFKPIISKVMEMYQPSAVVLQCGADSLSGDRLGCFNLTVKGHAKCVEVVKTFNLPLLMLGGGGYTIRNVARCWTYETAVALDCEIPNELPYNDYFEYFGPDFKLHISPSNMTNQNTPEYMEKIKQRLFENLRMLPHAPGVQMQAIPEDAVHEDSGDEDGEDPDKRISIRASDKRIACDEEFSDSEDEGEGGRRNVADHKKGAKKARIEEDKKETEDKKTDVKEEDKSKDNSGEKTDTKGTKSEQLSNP

| Compound | CTRL MCF7 (growth relative to control) (MCF7 [1]; 72 μg*0.01/ml) | Growth MCF7 (MCF7 [1]; 72 μg*0.01/ml) | CTRL MCF7 (growth relative to control) (MCF7 [1]; 360 μg*0.01/ml) | Growth MCF7 (MCF7 [1]; 360 μg*0.01/ml) | IC50 (MCF7 [2]) [nM] | CTRL HELA (growth relative to control) (HELA [3]; 72 μg*0.01/ml) | Growth HELA (HELA [3]; 72 μg*0.01/ml) | CTRL HELA (growth relative to control) (HELA [3]; 360 μg*0.01/ml) | Growth HELA (HELA [3]; 360 μg*0.01/ml) | IC50 (HELA [4]) [nM] | Inhibition of HDAC4 (HDAC4) | Inhibition of HDAC7 (HDAC7) | Inhibition of HDAC3 (HDAC3) | Inhibition of HDAC1 (HDAC1) | Inhibition of HDAC9 (HDAC9) | IC50 (HDAC6) [nM] | Inhibition of HDAC8 (HDAC8) | Inhibition of HDAC5 (HDAC5) | Inhibition of HDAC2 (HDAC2) |
| --- | --- | --- | --- | --- | --- | --- | --- | --- | --- | --- | --- | --- | --- | --- | --- | --- | --- | --- | --- |
| CCC/C=C\C/C=C\C/C=C\CCCCC(=O)O[C@@H](COC(=O)CCCCCCCCCCCCCCC)[C@H](O)[C@H](CO)NC(=O)CCCCCCCCCCC (relative stereo) [compound 1] | 0.42 | 0.29 | 0.15 | 0.11 | 100 | 0.78 | 0.43 | 0.56 | 0.31 | 400 | – | – | – | – | – | – | – | – | – |
| CCC/C=C\C/C=C\CCC(=O)O[C@@H](COC(=O)CCCCCCCCCCCCC)[C@H](O)[C@H](CO)NC(=O)CCCCCCCCCCC [compound 2] | – | – | – | – | 200 | – | – | – | – | 500 | – | – | – | – | – | – | – | – | – |
| C=C1CC[C@@H]2O[C@@]2(C)CC[C@H](/C(=C/CC2OC2(C)C)CO)[C@H]1C(=O)OC (stereo partly drawn) [compound VIII] | – | – | – | – | – | – | – | – | – | – | did not significantly inhibit | did not significantly inhibit | did not significantly inhibit | did not significantly inhibit | did not significantly inhibit | ~80000 | did not significantly inhibit | did not significantly inhibit | did not significantly inhibit |
